We go through 2 compounds from patent publication USRE49517E1, “Pyrazoles” (Janssen Pharmaceuticals, Inc., priority 2014, dated 2023).

By IC50 is commonly meant the concentration that inhibits the measured activity by half.

In the data set the target is human ERG receptor (Homo sapiens (Human), UniProt Q12809). In words: HERGBD: inhibition of specific [3H]-Dofetilide binding to the hERG receptor. Particulars: HEK cell membranes. Here is the method: Inhibition of Specific Binding to the hERG—Receptor (HERGBD)
human ERG receptor, sequence (Q12809 whole entry): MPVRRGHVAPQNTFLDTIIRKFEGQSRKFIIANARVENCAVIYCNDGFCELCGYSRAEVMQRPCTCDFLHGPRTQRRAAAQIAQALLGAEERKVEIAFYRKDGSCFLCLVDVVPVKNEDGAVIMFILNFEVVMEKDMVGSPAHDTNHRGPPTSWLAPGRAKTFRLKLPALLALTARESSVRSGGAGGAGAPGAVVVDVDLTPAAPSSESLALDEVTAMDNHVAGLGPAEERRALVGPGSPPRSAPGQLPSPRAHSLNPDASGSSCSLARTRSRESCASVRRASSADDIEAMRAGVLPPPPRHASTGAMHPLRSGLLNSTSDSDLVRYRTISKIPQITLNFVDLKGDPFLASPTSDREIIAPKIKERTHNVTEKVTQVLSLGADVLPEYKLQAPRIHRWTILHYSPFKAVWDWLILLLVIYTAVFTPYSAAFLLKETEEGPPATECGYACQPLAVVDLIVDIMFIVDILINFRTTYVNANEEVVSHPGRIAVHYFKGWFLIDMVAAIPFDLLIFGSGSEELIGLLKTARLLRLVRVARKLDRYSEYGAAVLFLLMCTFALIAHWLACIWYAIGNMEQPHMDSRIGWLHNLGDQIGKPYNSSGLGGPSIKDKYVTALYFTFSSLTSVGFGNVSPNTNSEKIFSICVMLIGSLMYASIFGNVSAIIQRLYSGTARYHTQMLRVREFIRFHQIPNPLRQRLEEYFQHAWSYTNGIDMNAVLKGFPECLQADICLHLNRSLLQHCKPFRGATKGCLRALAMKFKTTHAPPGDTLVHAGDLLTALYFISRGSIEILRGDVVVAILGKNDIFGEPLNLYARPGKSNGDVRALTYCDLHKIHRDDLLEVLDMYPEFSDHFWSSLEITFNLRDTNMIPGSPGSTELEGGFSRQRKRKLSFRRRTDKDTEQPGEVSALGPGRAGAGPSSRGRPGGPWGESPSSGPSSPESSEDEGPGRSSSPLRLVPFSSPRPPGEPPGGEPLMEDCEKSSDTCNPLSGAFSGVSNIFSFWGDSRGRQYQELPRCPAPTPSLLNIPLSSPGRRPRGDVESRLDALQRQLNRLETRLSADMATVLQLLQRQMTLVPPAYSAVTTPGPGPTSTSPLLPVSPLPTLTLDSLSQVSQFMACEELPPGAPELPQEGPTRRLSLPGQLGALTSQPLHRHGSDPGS
A HEK cell line with stable transfected human ERG receptor was used for the assay. The cells were grown adherently and maintained in DULBECCOS' MEM medium with 10% FBS, 1% non-essential amino acids, 1% Penicillin/Streptomycin and 400 μg/ml G418 (Calbiochem).
For binding assays and membrane preparations the cell culture medium was removed, cells were washed with PBS. Crude membranes for radioligand binding experiments were prepared by scraping the cells off the dishes in ice cold 20 mM HEPES/0.1 mM KCl/pH 7.2. […]
Binding was terminated by filtration of the incubated membrane preparations using Filtermat B (Pharmacia, Uppsala Sweden) and a Micro Cell Harvester (Skatron, Lier, Norway). The Filtermat B had been presoaked with 1% polyethylen imine and carefully washed with 0.05 M Tris/HCl-buffer pH=7.7 after the filtration to separate free and bound radioactivity. The filters were counted in a scintillation counter (Betaplate 1205, Berthold, Wildbad, Germany) in order to determine the specific binding of [^3H]-Dofetilide.
The optimal amount of membrane preparation in the assay was determined and optimized for each membrane preparation separately in front of using the membranes in compound testing. […]
For orientation: hERG is a cardiac potassium channel; its block is linked to QT prolongation.

Take `Cn1ccc(Cn2cc(-c3cccc(C(F)(F)F)c3)cn2)n1` [Example 49, 1-methyl-3-[[4-[3-(trifluoromethyl)phenyl]pyrazol-1-yl]methyl]pyrazole]: the IC50 was 19 µM.

For `Cc1cc(Cn2cc(-c3ccc(C(F)(F)F)cc3)cn2)n(C)n1` [Example 51, 1,3-Dimethyl-5-[[4-[4-(trifluoromethyl)phenyl]pyrazol-1-yl]methyl]-Pyrazole], the IC50 worked out at 137 µM. Against the preceding compound, the IC50 is about 7.2-fold higher.
